This note sets out measurements from PubChem BioAssay AID720589 (Broad Institute, 2013).

The source made the active and inactive calls.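 Rule for the calls: active = fitted curve drops below -35% activity at a concentration within twice the top valid tested dose; inconclusive = no clear call, values can overlap the other calls; inactive = signal rising instead of falling, among other cases.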

The first assay in a line: HepG2 hepatoma cell cytotoxicity, dose response, cytotoxicity control, CellTiter-Glo luminescence, cherry-pick, set 3 (AID 720589). To be noted: HepG2 viability, ATP luminescence (CellTiter-Glo), 72 h; at 0.011 µM; stronger effect = lower value; 0% = untreated, negative = ATP loss. A general note: In ATP-based viability assays light output follows the ATP content of the culture.
On to `C[C@@H]1CN([C@@H](C)CO)S(=O)(=O)c2ccc(C#Cc3ccncc3)cc2O[C@H]1CN(C)C(=O)C1CCOCC1`, for which the max activity was -28.4% (inactive).

In the case of `COc1ccc(/C=N/Nc2ccc(C(=O)O)cc2)cc1Br`, the max activity was -16% (inactive).

Consider `Nc1ccc(Oc2cccc(Oc3ccc(N)cc3)c2)cc1`, for which the max activity is 11.2% (inactive).

Turning to `CCN1C/C(=C/c2ccc(OC)c(O)c2)C(=O)/C(=C/c2ccc(OC)c(O)c2)C1`, the max activity was -39.6% (inactive).

Staying with this assay, now noted: HepG2 viability, ATP luminescence (CellTiter-Glo), 72 h; at 0.035 µM; stronger effect = lower value; 0% = untreated, negative = ATP loss.
On to `O=C(O)c1ccccc1C(=O)Nc1ccc(Oc2cccc3ccccc23)cc1`, for which the max activity is -12.6% (inactive).

As for `C[C@H]1CN([C@@H](C)CO)C(=O)Cc2cc(NC(=O)C3CC3)ccc2O[C@H]1CN(C)S(=O)(=O)c1ccc(Cl)cc1`, the max activity is -39.2% (inactive).

Consider `CCOC(=O)Cc1ccc(NC(=O)c2ccccc2Br)cc1`, for which the max activity was -16.1% (inactive).

Regarding `COc1ccc(/C=C2\SC(=S)N(CCCC(=O)NNC(=O)c3ccccc3O)C2=O)cc1`, the max activity is -21.1% (inactive).

The assay is the same for the next values; noted with them: HepG2 viability, ATP luminescence (CellTiter-Glo), 72 h; at 0.1 µM; stronger effect = lower value; 0% = untreated, negative = ATP loss.
Take `Cc1ccsc1C(=O)OCC(=O)c1cc(C)n(C)c1C`: the max activity is 9.16% (inactive).

On to `CC(=O)c1ccc(NC(=O)c2noc3c2CCC3)cc1`, for which the max activity was -34.6% (inactive).

The same assay, now with this note: HepG2 viability, ATP luminescence (CellTiter-Glo), 72 h; at 0.3 µM; stronger effect = lower value; 0% = untreated, negative = ATP loss.
With `CCOc1ccccc1CNC(=O)c1ccc(Sc2ccc(Cl)cc2)c(NC(C)=O)c1`, the max activity was -29.5% (inactive).

As for `COc1cc(-c2cnc3c(NC=O)cc(-c4cccc(NC(C)=O)c4)cn23)cc(OC)c1OC`, the max activity was -32.8% (inactive).

On to `CC(C)CN(C(=O)CN1CCOCC1)c1c(N)n(CC(C)C)c(=O)[nH]c1=O`, for which the max activity is -39% (inactive).

Regarding `COC(=O)C[C@H]1CC[C@@H]2[C@H](COc3ccc(NC(=O)Nc4cccc(Cl)c4)cc3C(=O)N2C)O1`, the max activity is -38.3% (inactive).

The same assay, now with this note: HepG2 viability, ATP luminescence (CellTiter-Glo), 72 h; at 0.9 µM; stronger effect = lower value; 0% = untreated, negative = ATP loss.
On to `CCc1ccc(Cn2ncc3c(C(=O)O)cc(C)nc32)cc1`, for which the max activity was -27.2% (inactive).

Take `C[C@@H]1CN([C@H](C)CO)C(=O)c2cc(NC(=O)CCCCCC(=O)Nc3ccccc3N)ccc2O[C@H]1CN(C)S(=O)(=O)c1ccc(Cl)cc1`: the max activity is -26.7% (inactive).

Consider `c1cncc(-c2ccc([C@@H]3[C@H]4CNC[C@@H]3N4CC3CCOCC3)cc2)c1`, for which the max activity is -28.8% (inactive).

Staying with this assay, now noted: HepG2 viability, ATP luminescence (CellTiter-Glo), 72 h; at 2.85 µM; stronger effect = lower value; 0% = untreated, negative = ATP loss.
Turning to `CC(Oc1cccc(Cl)c1)C(=O)NCCCCc1ccccc1` (stereo not given), the max activity was 18.7% (inactive).

For the molecule `Cc1cc(C(=O)Nc2ccc3c(c2)C(=O)N(C)[C@@H]2CC[C@H](CC(=O)N[C@H](C)c4ccccc4)O[C@H]2CO3)no1`, the max activity was -28.2% (inactive).

As for `C/C=C/c1ccc(C2[C@@H]3CN(C(=O)Cc4ccccc4)C[C@H]2N3)cc1` (stereo not given in full), the max activity is -29.1% (inactive).

Consider `CN(C)c1ccc2c(c1)[C@@H]1C[C@@H](CC(=O)NCc3ccc(Oc4ccccc4)cc3)O[C@H](CO)[C@@H]1O2`, for which the max activity is -31.7% (inactive).

The same assay, now with this note: HepG2 viability, ATP luminescence (CellTiter-Glo), 72 h; at 8 µM; stronger effect = lower value; 0% = untreated, negative = ATP loss.
Take `O=C(COC(=O)c1ccc[nH]c1=O)Nc1ccc(N2CCCCC2)cc1`: the max activity is -25.3% (inactive).

Take `Cc1ccc2c(=O)n3c(nc2c1)C(Cc1ccc(O)cc1)NC(=O)c1cc2ccccc2cc1-3` (stereo not given): the max activity was -16.9% (inactive).

Staying with this assay, now noted: HepG2 viability, ATP luminescence (CellTiter-Glo), 72 h; at 21 µM; stronger effect = lower value; 0% = untreated, negative = ATP loss.
On to `COc1ccc(CN(C)C[C@H]2Oc3ccc(NC(=O)CCCCCC(=O)Nc4ccccc4N)cc3CC(=O)N([C@H](C)CO)C[C@H]2C)cc1`, for which the max activity is -31.8% (inactive).

The assay is the same for the next values; noted with them: HepG2 viability, ATP luminescence (CellTiter-Glo), 72 h; at 26 µM; stronger effect = lower value; 0% = untreated, negative = ATP loss.
As for `COc1ccc(-c2sc3ccccc3c2-c2ccc(OCCN3CCCCC3)cc2)cc1`, the max activity was -22.5% (inactive).

As for `CCCCCCCCn1c2c(c(=N)c3c1CCC3)CCCC2`, the max activity was -46.7% (inactive).

`CC(C)(C)C(=O)Cn1ncc(Cl)c(Cl)c1=O`: the max activity was -23.7% (inactive).

`O=C(O)c1ccc2cc(-c3ccccc3)[nH]c2c1`: the max activity is -25% (inactive).

Regarding `Oc1c(Cl)cc(Cl)c2cccnc12`, the max activity was -31.8% (inactive).

On to `Cc1cccc(NC(=O)CN2CCN(C(=O)CNC(=O)c3ccc(-c4ccccc4)cc3)CC2)c1C`, for which the max activity was -36.3% (inactive).
